Read-outs that look alike come from different tables or passages of the source.
Legend:
[1] = test system: HCM18 cells; experiment: Viability of HCM18 control and Bak/Bax deleted cells; format: cell-based; conditions: HCM18 Bak/Bax knock out vs control
Source text: FIG. 32A-F show exemplary viability results of HCM18 control cells or […] deletion cells after treatment with indicate concentrations of different compounds (Pyrithione-Cu is Pyrithione-CuCl2 (1:1); TMT-Cu is TMT-CuCl2 (1:1); 8HQ-Cu is 8-HQ-CuCl2 (1:1); Disulfiram-Cu is Disulfiram-CuCl2 (1:1); NSC319726-Cu is NSC319726-Cu Cl2 1(1:1); AntiA is Antimycin A).
Both iron and copper can generate highly reactive hydroxyl radical (.OH) from O2.— and H2O2 in the cell via the Fenton reaction. In the case of iron, this can result in lipid radicals that induce ferroptosis, a non-apoptotic cell death. […] As such, to determine if elesclomol induced cell death is apoptotic, a genetic approach was undertaken using the HCM18 cells that have the crucial apoptosis effectors (Bak and Bax) knocked out (FIG. 29). […] However, the ability of elesclomol-copper to induce cell death was unaffected (FIG. 11). Other copper binding molecules were tested in these cell lines and in all cases the efficacy of these compounds was unaffected by the genetic perturbation of the apoptosis pathway (FIG. 32).

[2] = test system: lipid peroxidation; experiment: Lipid peroxidation; format: cell-based
[3] = test system: three cell lines; experiment: Pre-treatment with compounds that block known cell death pathways; format: cell-based
Source text: To further establish which cell death pathways might be mediating the elesclomol induced copper-dependent cell death, a chemical approach was undertaken using compounds that block critical niches of known cell death pathways. […] As controls, ferroptosis-inducing GPX4 inhibitor (ML162) and apoptosis-inducing proteasome inhibitor (bortezomib) were used. […] Ferroptosis or apoptosis-altering compounds (as shown in the ML162 and bortezomib controls) had no effect on elesclomol-copper-induced cell death. […] The slight changes observed are most likely due to the copper chelating properties of the molecule. […] Given the absolute dependency and regulation of this cell death pathway by copper, this process is referred to as ‘cuproptosis’ for simplicity.

[4] = test system: A549 cell lines; experiment: Whole genome CRISPR/Cas9 deletion screens with copper bound ionophores; format: cell-based; conditions: positive selection
Method: These genes included FDX1, protein lipoylation enzymes (LIAS, LIPT1, and DLD) and subunits of the lipoylated protein complex pyruvate dehydrogenase (DLAT, PDHA1, and PDHB).
FIG. 54A-E show exemplary plots of the log fold change versus the calculated p-value of FDX1 (A), DLAT (B), DLD (C) and LIAS (D) genes from the two whole genome CRISPR/Cas9 deletion screens in A549 cell lines for two concentrations of elesclomol-Cu (40 nM and 100 nM). (E) The correlation scores of FDX1 mRNA expression with the viability of 724 cancer cell lines as previously determined (4) for the different concentrations of elesclomol.

[5] = test system: NCHIH2030 cells; experiment: Viability in media containing glucose or galactose; format: cell-based; conditions: glucose replaced with galactose in the media
Method: FIG. 32G-L show exemplary viability results of NCHIH2030 cells grown in the presence of 10 mM glucose or 10 mM galactose in the media after 72 hours (Pyrithione-Cu is Pyrithione-CuCl2 (1:1); TMT-Cu is TMT-CuCl2 (1:1); 8HQ-Cu is 8-HQ-CuCl2 (1:1); Disulfiram-Cu is Disulfiram-CuCl2 (1:1); NSC319726-Cu is NSC319726-Cu Cl2 1(1:1); AntiA is Antimycin A).
(§1) To establish if this effect is mediated by the electron transfer chain (ETC), 143B rho0 cells (lacking mitochondrial DNA) and their parental controls (143B) were tested.

[6] = test system: 143B rho0 cells; experiment: Viability of 143B and 143B Rho0 cells; format: cell-based; conditions: 72 hours
Method: as §1

[7] = test system: MON cells; experiment: Viability after treatment with drugs in the presence of metal salts; format: cell-based; conditions: for cell death promoted by Zinc: 10 μM ZnCl2
Method: Metal binding compounds can induce a toxic phenotype either by sequestration (chelation) of metals from essential factors or by shuttling (e.g., an ionophore) of metals to cellular compartments where they are toxic.
The viability of MON cells was measured following treatment with increasing doses of indicated drugs in the presence of 10 μM FeCl2, FeCl3, ZnCl2, NiCl, CuCl2, or CoCl2 (FIG. 13). The viability of NCIH2030 cells was measured following treatment with increasing doses of indicated drugs in the presence of 10 μM FeCl2, FeCl3, ZnCl2, NiCl, CuCl2, or CoCl2 (FIG. 14).

[8] = test system: tumors; experiment: Lipoic acid staining as biomarker of sensitivity
Source text: Lipoic acid was stained in FDX1 KO cells by an immunohistochemistry assay.

[9] = test system: A549 cells; experiment: Viability after FDX1 or LIAS gene deletion; format: cell-based
Source text: It has been previously shown that ferredoxin 1 (FDX1) is an important mediator of elesclomol-induced toxicity. […] To better understand the potential downstream mediators of cuproptosis, a CRISPR/Cas9 deletion strategy was used. […] In all conditions, FDX1 gene was the highest scoring hit, emphasizing the importance of this gene in elesclomol mediated toxicity (FIG. 33). […] The lipoic acid pathway mediates the lysine lipoylation of specific enzymes (DLAT, DLST, DBT, GCSH) that is crucial for their function (FIG. 34). […] This hypothesis was particularly appealing as lipoylation is required for mitochondrial respiration and lipoic acid has shown to have a high affinity binding to copper.

[10] = test system: Biomarker-positive cells; experiment: Cell culture washout (short exposure mimicking PK); format: cell-based; conditions: for sensitivity of biomarker-positive cells: high FDX1 expression vs biomarker negative
Method: […] Panels D and Panel E show the relative changes in metabolites as measured in ABC1(D) and A549 (E) 24 hours after a 2 hour pulse treatment with 100 nM elesclomol.
Biomarker-positive cells are sensitive to elesclomol-Cu(II) treatment corresponding to measured concentrations and kinetics measured in mice pharmokinetic (PK) studies.
Study simulates short exposure time that mimics the pharmokinetic (PK) properties of elesclomol-Cu(II).
Data supports Cmax driven activity profile. Cells will be used to establish a SubQ xenograft model where different copper ionophores could be analyzed for their efficacy.

[11] = test system: OVISE cells; experiment: Viability after LIAS or FDX1 gene deletion; format: cell-based
[12] = target: T1, FDX1 (Homo sapiens, UniProt P10109); conditions: cited from earlier work; for binding to FDX1: previously shown
T1 sequence (P10109 61-184): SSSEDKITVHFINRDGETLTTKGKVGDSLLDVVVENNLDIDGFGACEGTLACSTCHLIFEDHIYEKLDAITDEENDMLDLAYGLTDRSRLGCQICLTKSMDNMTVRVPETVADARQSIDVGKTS

[13] = cited from earlier work
[14] = test system: ABC1 cells; experiment: Elesclomol sensitivity of single cell clones with AAVS1 or FDX1 deletion; format: cell-based; conditions: in the presence of 1 uM CuCl2
[15] = test system: lipoyl-DLAT and lipoyl-DLST; experiment: Western blot of lipoylated proteins; format: cell-based
Method: CRISPR KO FDX1 cell lines or CRISPR KO LIAS cell lines were created and were assessed for levels of lipoylated proteins lipoyl-DLAT and lipoyl-DLST by Western Blot (FIG. 8).
Lipoic acid is a strong binder of copper, making it plausible that elesclomol bound copper could directly affect the lipoylated proteins. Indeed, the addition of elesclomol at concentrations as low as 10 nM reduced the levels of lipoylated proteins without dramatically affecting the protein levels (FIG. 36 and FIG. 37).
The levels of lipoylation decrease following treatment of A549 cells with 1 μM elesclomol (+CuCl2) (FIG. 26).

[16] = Tsvetkov et al., Nat Chem Bio, 2019; cited from earlier work
[17] = test system: multiple cell line models; experiment: Elesclomol-induced cell death depending on copper availability (supplementation, TTM chelation, serum); format: cell-based
Source text: The sensitivity of cells to elesclomol is dependent on copper availability. […] Copper is not supplemented in the media (RPMI) and therefore the availability of copper is restricted to the abundance of copper in serum, which can strongly vary. […] Thus, the efficacy of elesclomol is dependent on extracellular and intracellular copper availability.

[18] = Tsvetkov et al., Nat Chem Bio, 2019

CC(=O)O[C@H]1C(=O)[C@@]2(C)[C@H]([C@H](OC(=O)c3ccccc3)[C@]3(O)C[C@H](OC(=O)[C@H](O)[C@@H](NC(=O)c4ccccc4)c4ccccc4)C(C)=C1C3(C)C)[C@]1(OC(C)=O)CO[C@@H]1C[C@@H]2O [paclitaxel]
efficacy in Bak/Bax deleted cells [1]: strongly inhibited

CN([N-]C(=O)CC(=O)[N-]N(C)C(=[SH+])c1ccccc1)C(=[SH+])c1ccccc1.[Cu] [elesclomol-Cu(II)]
change in lipid peroxidation [2]: did not induce a profound change
efficacy in Bak/Bax deleted cells [1]: unaffected
block of cell death by pan-caspase inhibitors, Ferrostatin-1, Necrostatin-1, antioxidants ([3]; pre-treatment of cells): did not block
effect of deletion of FDX1, protein lipoylation and PDH genes [4]: promotes resistance

CN(C)C(=S)SC(=S)N(C)C [TMT, tetra methyl thiuram monosulfide]
effect of shift to mitochondrial metabolism on sensitivity [5]: rather mild
sensitivity of 143B rho0 cells compared with parental 143B [6]: equally sensitive

[O-][n+]1ccccc1[S-].[O-][n+]1ccccc1[S-].[Zn+2] [Pyrithione, Pyrithione Zinc]
effect of shift to mitochondrial metabolism on sensitivity [5]: rather mild
sensitivity of 143B rho0 cells compared with parental 143B [6]: equally sensitive
cell death promoted by Zinc ([7]; to a lower extent than copper): also able to promote the cell death

CCN(CC)C(=S)SSC(=S)N(CC)CC [disulfiram, tetraethylthiuram disulfide]
sensitivity of tumors with increased levels of lipoic acid [8]: sensitive
sensitivity of 143B rho0 cells compared with parental 143B [6]: slightly more sensitive
cell death promoted by Zinc ([7]; to a lower extent than copper): also able to promote the cell death

CCN(CC)C(=S)[S-].CCN(CC)C(=S)[S-].[Cu+2] [Cu-DDC]
effect of deletion of FDX1, protein lipoylation and PDH genes [4]: promotes resistance

Oc1cccc2cccnc12 [8HQ, Oxyquinoline]
effect of shift to mitochondrial metabolism on sensitivity [5]: rather mild
sensitivity of 143B rho0 cells compared with parental 143B [6]: equally sensitive
cell death promoted by Iron ([7]; 10 μM FeCl2, FeCl3, to a lower extent than copper): also able to promote the cell death

CN1C(c2ccccc2)=[SH][Cu+2]23[SH]=C(c4ccccc4)N(C)[N]2C(=O)CC(=O)[N]13 [elesclomol-Cu(II)]
effect of deletion of FDX1 in A549 cells ([9]; A549): relative resistance
effect of deletion of FDX1 ([9]; multiple cell models): conferred resistance
biomarker selective cell killing after short exposure ([10]; 2 hour exposure at 200 nM followed by washout): sufficient to effect biomarker selective cell killing
sensitivity of biomarker-positive cells [10]: sensitive
effect of deletion of LIAS or FDX1 in OVISE cells [11]: resistance
substrate of FDX1 [12, 18]: neo-substrate of FDX1

CN(NC(=O)CC(=O)NN(C)C(=S)c1ccccc1)C(=S)c1ccccc1 [elesclomol, Elesclomol]
Phase II trial outcome ([13]; in combination with paclitaxel): may provide a cancer progression-free survival benefit
Phase III trial outcome ([13]; in vivo): failed
effect of deletion of LIAS [9]: sufficient to promote resistance
sensitivity of tumors with increased levels of lipoic acid [8]: sensitive
sensitivity of biomarker-positive cells [10]: more sensitive
effect of decrease of FDX1 beyond certain threshold [14]: increases the cell resistance
block of cell death by copper chelation ([3]; three cell lines tested, TTM): only copper chelation by TTM, was able to block
lipoyl-DLAT and lipoyl-DLST protein levels ([15]; 1 μM over 6 hours): decreased over time
levels of lipoylation ([15]; A549 cells, 1 μM (+CuCl2)): decrease
concentration that reduced the levels of lipoylated proteins ([15]; without dramatically affecting the protein levels): ≤ 10 nM
effect of shift to mitochondrial metabolism on sensitivity [5]: increasingly more sensitive
sensitivity of 143B rho0 cells compared with parental 143B [6]: slightly more sensitive
FDX1 activity in vitro [12, 18]: inhibits FDX1 activity
binding to FDX1 [12]: direct target
binding to FDX1 ([12]; listed as Elesclomol): directly binds
selectivity of metal binding ([7]; among compounds of the cluster): most selective binding to copper
copper dependence of killing [16]: copper dependent
sensitivity in media lacking serum ([17]; completely reversed by addition of copper): increased resistance
elesclomol-induced cell death upon addition of copper ([17]; copper 1 μM in media or 1:1 ratio with compound): strongly augment
elesclomol induced cell death upon chelation of copper with tetrathiomolybdate (TTM) ([17]; multiple cell line models): completely blocks
variability of efficacy with copper supplementation ([17]; subset of ovarian cancer cell lines): strongly reduces the variability

C/C(=N\NC(=S)N1CCC1)c1ccccn1 [NSC-319726]
sensitivity of 143B rho0 cells compared with parental 143B [6]: equally sensitive
cell death promoted by Zinc ([7]; to a lower extent than copper): also able to promote the cell death
